Reference: patent US9051387B2, “Inhibition of MyBP-C binding to myosin as a treatment for heart failure” (Wisconsin Alumni Research Foundation, priority 2012, dated 2015)
“Also recorded” adds a separate entry of the source.

Legend:
[1] = test system: mouse skinned myocardium; experiment: Force-pCa relationship (Ca2+ sensitivity of force) in skinned myocardium; format: cell-based
Description: (§1) Skinned ventricular myocardium was prepared according to the protocol described by Chen et al. (2010). In brief, beating hearts were excised in vivo from anesthetized WT mice of either sex (˜6 months old) and dissected in Ca^2+-Ringer's solution containing 120 mM NaCl, 19 mM NaHCO3, 5 mM KCl, 1.2 mM Na2HPO4, 1.2 mM MgSO4, 1 mM CaCl2, and 10 mM glucose, pH 7.4 at 22° C., pre-equilibrated with 95% O2/5% CO2. Basal levels of RLC phosphorylation were reduced to uniformly low levels (i.e., <10%) as described previously (Olsson et al., 2004; Stelzer et al., 2006) by perfusing hemisected hearts with Ca^2+-Ringer's solution containing 30 mM 2,3-butanedione monoxime (BDM) for 30 minutes at 22° C. before rapid freezing in liquid nitrogen for storage prior to experimental measurements. The dephosphorylation of RLC provides an appropriate background for assessment of the effects of the peptide, since RLC phosphorylation increases force production in heart muscle and speeds contraction and RLC phosphorylation is nearly nil in heart failure.
On the day of an experiment, frozen ventricles were thawed and homogenized in ice-cold relaxing solution containing 100 mM KCl, 10 mM imidazole, 5 mM MgCl2, 2 mM EGTA, and 4 mMATP, pH 7.0 at 22° C. to yield multicellular preparations with dimensions of 600-900 μm×100-250 μm using a Polytron homogenizer. The cellular homogenates were then centrifuged and subsequently resuspended in ice-cold relaxing solution containing 250 μg/ml saponin and 1% Triton X-100 for 30 minutes at 4° C. […]
(§2) The force generating properties of murine or porcine skinned myocardium were measured as a function of free [Ca^2+] in activating solutions containing salts, a Ca^2+ buffer, and MgATP (Olsson et al., 2004). Free Ca^2+, expressed as −log [Ca^2+]free, was varied between sub-threshold (pCa 7.0) and saturating (pCa 4.5) levels with respect to force development. Measurements of isometric force as a function of pCa yielded force-pCa relationships, from which was determined the Ca^2+ sensitivity of force defined as the pCa at which force was half-maximal. […]

[2] = test system: porcine skinned myocardium; experiment: as above; format: cell-based, pig
Description: Skinned myocardial preparations were attached between a force transducer (for measurements of force) and a displacement motor (to impose rapid changes in length for measurements of the kinetics of force development) while in relaxing solution (Olsson et al., 2004). The temperature was then adjusted to 22° C. for measurements of the contractile properties of myocardium in the presence and absence of peptide.
The force generating properties of murine or porcine skinned myocardium were measured as a function of free [Ca^2+] in activating solutions containing salts, a Ca^2+ buffer, and MgATP (Olsson et al., 2004). Free Ca^2+, expressed as −log [Ca^2+]free, was varied between sub-threshold (pCa 7.0) and saturating (pCa 4.5) levels with respect to force development. Measurements of isometric force as a function of pCa yielded force-pCa relationships, from which was determined the Ca^2+ sensitivity of force defined as the pCa at which force was half-maximal.
The force and kinetic data presented in the following section were obtained from each muscle preparation first during maximal activation at pCa 4.5, next during submaximal activation at a pCa>4.5, and once again during activation at pCa 4.5. The preparation was then bathed in relaxing solution containing peptide, after which the identical activation sequence was imposed. Finally, the peptide was washed out of the preparation by repeated washings in relaxing solution so that control measurements could again be done in the absence of peptide. This bracketing protocol ensured that the results in the presence of peptide were corrected for time-dependent rundown of the preparations during the experiment.
Measurements of Ca^2+ sensitivity of force were also performed using skinned myocardium from pig hearts, since these hearts are more similar to human hearts with respect to protein isoform expression than are mouse hearts. Specifically, the principal myosin isoform in porcine and human hearts is the much slower β-cardiac myosin, while the principal isoform in mouse hearts is the faster α-cardiac myosin. […] The slower β-cardiac isoform would be predicted to have a greater activating effect on the cardiac thin filament due to the longer residency time of the slower myosin on the thin filament.

[3] = test system: murine skinned myocardium; experiment: Kinetics of force development (rate constant of force redevelopment, ktr); format: cell-based, mouse; conditions: 50 μM peptide, each pCa studied
Description: as §1, with “failure. […]” for “failure.”
The kinetics of force development were assessed as a function of pCa by measuring the rate of force redevelopment at each pCa following a rapid slackening and re-stretch of the muscle during steady Ca^2+ activation (Olsson et al., 2004; Stelzer et al., 2006). […]

[4] = test system: mouse skinned myocardium; experiment: Relative effects of peptides on force at submaximal pCa (scaled to force at pCa 4.5); format: cell-based; conditions: FIG. 7, mouse, 50 μM, intermediate pCa; untreated force ~35% of maximum
Description: as §1, with “The dephosphorylation of RLC provides an appropriate background for assessment of the effects of the peptide, since RLC phosphorylation increases force production in heart muscle and speeds contraction and RLC phosphorylation is nearly nil in heart failure.” left out
as §2

**Q.** What does the source list for “FSSLLKKRDAFRRDAKLE (SEQ ID NO:47) [302A, 18-mer from cMyBP-C region 293-310 with S→A substitutions at positions 302 and 307]”?
**A.** increase in Ca2+ sensitivity of force ([1]; mouse myocardium, 50 μM peptide, versus control): 0.15 pCa units; pCa50 following treatment with peptide ([1]; mouse myocardium, 50 μM peptide, control 5.70±0.02): 5.85±0.02; effect on force-pCa relationship ([1]; mouse skinned myocardium, peptide 50 μM): shift of the force-pCa relationship to lower Ca^2+ concentrations; also recorded: shifted to lower Ca^2+ concentrations; increase in Ca2+ sensitivity of force ([2]; porcine myocardium, 50 μM peptide, versus control): 0.32 pCa units; pCa50 following treatment with peptide ([2]; porcine myocardium, 50 μM peptide, control 5.60): 5.92; effect of washout of the peptide ([2]; porcine myocardium, after 50 μM peptide): reversed the effect; effects on force development, porcine versus murine ([2]; skinned myocardium, FIG. 3): significantly greater in porcine than in murine skinned myocardium; effect on rate constant of force development (ktr) [3]: accelerated the rate of force development at each pCa studied; also recorded: increased at each pCa studied; force at pCa 5.9 (scaled to force at pCa 4.5), fold of control [4]: ~2 × control
